Data taken from US20080118591A1, “Bactericidal Formulations” (priority 2004, published 2008).

What was measured:
S. aureus = experiment: Rapid bactericidal activity of liquid wash formulations; assay type: cell-based; settings: in formulation IV, 30 s
Experimental: (§1) The above formulations are supplemented with 0.9% (w/v) of the perfume composition A of example 2. A control of each formulation is left un-perfumed. The rapid bactericidal activity of these formulations is then tested as follows: • The products are diluted 1:1 in hard water as defined in the European standard EN 1276. This mimics conditions of use on wet hands or wet surfaces in commonly used water. • 500 μl of the product is mixed with 25 μl of a bacterial inoculum containing 2×10^8 cfu/ml (colony forming units). • The mixture is incubated for 30 seconds at 37° C. • 20 μl of the mixture is removed and added to 180 μl neutralising solution (containing 3 g lecithin, 30 g Tween® 80, 5 g sodium thiosulfate, 1 g histidine, 30 g saponin, 8.5 g sodium chloride, 1 g tryptone and 1000 ml water). • The mixture with neutraliser is incubated for 1 min • Serial dilutions of the mixture with neutralising solution are made, and aliquots of these are added to Petri-dishes and embedded in tryptic soy agar containing 0.5% Tween® 80 to inactivate any residual antibacterial compounds. • Bacterial numbers are counted after 24 h incubation at 37° C. and compared to control samples. • Reduction in bacterial viability is determined as described in example 1
Formulation IV of example 3 is supplemented with different concentrations of phenolic biocides and different concentrations of the perfume composition A of example 2. The reduction in viability of various test organisms is determined at different dilutions of the formulation (1:1 or 1:3 to simulate conditions of use) after 30 seconds contact time.

E. coli = experiment: as above; assay type: cell-based; settings: in formulation IV, 30 s
Experimental: as §1, with “A” for “The above formulations are supplemented with 0.9% (w/v) of the perfume composition A of example 2. A”
Formulations are tested in a dilution of 1:1 and with 30 seconds contact time to bacteria (E. coli). […]

| SMILES | rapid bactericidal effect, S. aureus conc. (S. aureus; Biocide 0.2%, Perfume 0%) | rapid bactericidal effect, S. aureus conc. (S. aureus; Biocide 0.2%, Perfume 0.45%) | rapid bactericidal effect, E. coli 1:1 (E. coli; Biocide 0.2%, Perfume 0%) | rapid bactericidal effect, E. coli 1:3 (E. coli; Biocide 0.2%, Perfume 0%) | rapid bactericidal effect, E. coli 1:1 (E. coli; Biocide 0.2%, Perfume 0.45%) | rapid bactericidal effect, E. coli 1:3 (E. coli; Biocide 0.2%, Perfume 0.45%) | rapid bactericidal effect, S. aureus conc. (S. aureus; Biocide 0.4%, Perfume 0%) | rapid bactericidal effect, S. aureus conc. (S. aureus; Biocide 0.4%, Perfume 0.45%) | rapid bactericidal effect, E. coli 1:1 (E. coli; Biocide 0.4%, Perfume 0%) | rapid bactericidal effect, E. coli 1:3 (E. coli; Biocide 0.4%, Perfume 0%) | rapid bactericidal effect, E. coli 1:1 (E. coli; Biocide 0.4%, Perfume 0.45%) | rapid bactericidal effect, E. coli 1:3 (E. coli; Biocide 0.4%, Perfume 0.45%) |
| --- | --- | --- | --- | --- | --- | --- | --- | --- | --- | --- | --- | --- |
| Oc1cc(Cl)ccc1Oc1ccc(Cl)cc1Cl [Triclosan, 2,4,4′-trichloro-2′-hydroxy-diphenylether] | 12 | 31 | 1 | 1 | >250 | 2 |  |  |  |  |  |  |
| Oc1ccc(Cl)cc1Cc1ccccc1 [2-benzyl-4-chlorphenol] | 1 | 1 | 1 | 1 | >250 | 2 | 3 | 21 | 18 | 1 | >250 | 4 |
